# Experimental data from ChEMBL document CHEMBL1201862, “PubChem BioAssay data set” (2004).
#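 Protocol summary: plate cells (96-well), add compound at 5 concentrations, incubate 48 h, interpolate endpoints linearly. GI50 = concentration required for 50% inhibition of growth.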 The source made the active and inactive calls. No stated cut-off is given here; in the data, active = GI50 up to about 1.1 µM and inactive = higher.
# Columns and labels:
# Test in all cases: NCI tumour cell line growth inhibition, 48 h
# OVCAR-8 = test system: OVCAR-8
# HCC 2998 = test system: HCC 2998
# NCI/ADR-RES = test system: NCI/ADR-RES
# KM12 = test system: KM12
# NCI-H226 = test system: NCI-H226
# SK-OV-3 = test system: SK-OV-3
# MDA-MB-231 = test system: MDA-MB-231
# M14 = test system: M14
# SNB-19 = test system: SNB-19
# SK-MEL-28 = test system: SK-MEL-28
# UO-31 = test system: UO-31
# COLO 205 = test system: COLO 205
# UACC-62 = test system: UACC-62
# SK-MEL-2 = test system: SK-MEL-2
# SF-268 = test system: SF-268
# SF-539 = test system: SF-539
# A549 = test system: A549
# T47D = test system: T47D
# HOP-92 = test system: HOP-92
# LOX IMVI = test system: LOX IMVI
Structure (SMILES),GI50 (OVCAR-8),GI50 (HCC 2998),GI50 (NCI/ADR-RES),GI50 (KM12),GI50 (NCI-H226),GI50 (SK-OV-3),GI50 (MDA-MB-231),GI50 (M14),GI50 (SNB-19),GI50 (SK-MEL-28),GI50 (UO-31),GI50 (COLO 205),GI50 (UACC-62),GI50 (SK-MEL-2),GI50 (SF-268),GI50 (SF-539),GI50 (A549),GI50 (T47D),GI50 (HOP-92),GI50 (LOX IMVI)
O=C(N/N=C/c1ccc([N+](=O)[O-])cc1)Nc1ccc(Br)cc1,40.9 µM (inactive),26.5 µM (inactive),49.2 µM (inactive),> 100 µM (inactive),> 100 µM (inactive),68.2 µM (inactive),> 100 µM (inactive),45.2 µM (inactive),76.4 µM (inactive),> 100 µM (inactive),> 100 µM (inactive),63.2 µM (inactive),15.3 µM (inactive),> 100 µM (inactive),52.2 µM (inactive),> 100 µM (inactive),> 100 µM (inactive),36.1 µM (inactive),> 100 µM (inactive),51.1 µM (inactive)
CCOc1ccc2ccc3cccnc3c2n1,72.8 µM (inactive),51.6 µM (inactive),37.7 µM (inactive),45.4 µM (inactive),39 µM (inactive),43.4 µM (inactive),38.4 µM (inactive),47.2 µM (inactive),> 100 µM (inactive),> 100 µM (inactive),64 µM (inactive),28.7 µM (inactive),27 µM (inactive),81.7 µM (inactive),> 100 µM (inactive),> 100 µM (inactive),61 µM (inactive),32.7 µM (inactive),44.7 µM (inactive),49.1 µM (inactive)
CCc1n[nH]c(=O)n1CCCCCCCCn1c(CC)n[nH]c1=O,> 100 µM (inactive),> 100 µM (inactive),> 100 µM (inactive),> 100 µM (inactive),> 100 µM (inactive),> 100 µM (inactive),> 100 µM (inactive),> 100 µM (inactive),> 100 µM (inactive),,> 100 µM (inactive),> 100 µM (inactive),> 100 µM (inactive),> 100 µM (inactive),> 100 µM (inactive),> 100 µM (inactive),> 100 µM (inactive),> 100 µM (inactive),> 100 µM (inactive),> 100 µM (inactive)
CCOC(=O)N/N=C(\CC)NO,> 100 µM (inactive),> 100 µM (inactive),> 100 µM (inactive),> 100 µM (inactive),> 100 µM (inactive),> 100 µM (inactive),> 100 µM (inactive),,> 100 µM (inactive),> 100 µM (inactive),> 100 µM (inactive),> 100 µM (inactive),> 100 µM (inactive),> 100 µM (inactive),> 100 µM (inactive),> 100 µM (inactive),> 100 µM (inactive),> 100 µM (inactive),> 100 µM (inactive),> 100 µM (inactive)
C[N+]12CCCCC1C(COc1cccc3cccnc13)CCC2 (stereo unspecified),> 100 µM (inactive),> 100 µM (inactive),> 100 µM (inactive),> 100 µM (inactive),59.6 µM (inactive),> 100 µM (inactive),91.2 µM (inactive),> 100 µM (inactive),> 100 µM (inactive),> 100 µM (inactive),> 100 µM (inactive),> 100 µM (inactive),> 100 µM (inactive),> 100 µM (inactive),> 100 µM (inactive),> 100 µM (inactive),> 100 µM (inactive),> 100 µM (inactive),15.9 µM (inactive),93.5 µM (inactive)
CN(C)CCCCCNc1c2ccccc2nc2cccc([N+](=O)[O-])c12,0.00177 µM (active),0.00331 µM (active),0.00119 µM (active),0.00957 µM (active),0.0214 µM (active),0.00607 µM (active),0.00032 µM (active),0.00146 µM (active),0.00413 µM (active),0.00481 µM (active),,0.000524 µM (active),0.00183 µM (active),0.00107 µM (active),0.00118 µM (active),0.0036 µM (active),0.000685 µM (active),0.00973 µM (active),0.00329 µM (active),0.00289 µM (active)
C=CCN(C(C)=O)c1cc(OCc2ccccc2)c2c(c1)c(C)cn2S(=O)(=O)c1ccccc1,5.57 µM (inactive),22.1 µM (inactive),4.95 µM (inactive),3.85 µM (inactive),7.29 µM (inactive),16.1 µM (inactive),6.98 µM (inactive),5.4 µM (inactive),7.08 µM (inactive),21.2 µM (inactive),2.86 µM (inactive),3.78 µM (inactive),7.1 µM (inactive),3.11 µM (inactive),5.37 µM (inactive),11.5 µM (inactive),4.06 µM (inactive),3.26 µM (inactive),5.96 µM (inactive),5.07 µM (inactive)
Nc1ncnc2c1ncn2C1OC(CO)=CC1O (stereo unspecified),> 37.5 µM (inactive),> 37.5 µM (inactive),> 37.5 µM (inactive),> 37.5 µM (inactive),> 37.5 µM (inactive),> 37.5 µM (inactive),> 37.5 µM (inactive),> 37.5 µM (inactive),> 37.5 µM (inactive),> 37.5 µM (inactive),> 37.5 µM (inactive),> 37.5 µM (inactive),> 37.5 µM (inactive),> 37.5 µM (inactive),> 37.5 µM (inactive),> 37.5 µM (inactive),> 37.5 µM (inactive),> 37.5 µM (inactive),> 37.5 µM (inactive),> 37.5 µM (inactive)
CCO/C=N/C1=C(C#N)C(c2ccc(OC)c(OC)c2)c2c(-c3ccccc3)nn(-c3ccccc3)c2O1 (stereo unspecified),19.2 µM (inactive),> 100 µM (inactive),15.6 µM (inactive),8.02 µM (inactive),11.3 µM (inactive),21.2 µM (inactive),19.2 µM (inactive),21.4 µM (inactive),15.9 µM (inactive),15 µM (inactive),17.7 µM (inactive),13.1 µM (inactive),14.4 µM (inactive),18.5 µM (inactive),18.5 µM (inactive),8.67 µM (inactive),18.3 µM (inactive),9.14 µM (inactive),13.4 µM (inactive),15.4 µM (inactive)
CCn1c(=O)c2nc(SC)sc2n(-c2ccccc2)c1=O,> 100 µM (inactive),> 100 µM (inactive),> 100 µM (inactive),> 100 µM (inactive),> 100 µM (inactive),> 100 µM (inactive),> 100 µM (inactive),> 100 µM (inactive),> 100 µM (inactive),> 100 µM (inactive),26 µM (inactive),> 100 µM (inactive),,> 100 µM (inactive),> 100 µM (inactive),> 100 µM (inactive),> 100 µM (inactive),> 100 µM (inactive),54.1 µM (inactive),> 100 µM (inactive)
CN(NC(=O)c1ccco1)C1=NCCCCN1,> 100 µM (inactive),> 100 µM (inactive),> 100 µM (inactive),> 100 µM (inactive),> 100 µM (inactive),> 100 µM (inactive),> 100 µM (inactive),> 100 µM (inactive),> 100 µM (inactive),> 100 µM (inactive),> 100 µM (inactive),> 100 µM (inactive),> 100 µM (inactive),> 100 µM (inactive),> 100 µM (inactive),> 100 µM (inactive),> 100 µM (inactive),> 100 µM (inactive),> 100 µM (inactive),> 100 µM (inactive)
O=C(O)CN1C=C(C(=O)c2cc3ccccc3n2S(=O)(=O)c2ccccc2)CCC1,64.6 µM (inactive),69.7 µM (inactive),66.1 µM (inactive),37.1 µM (inactive),46.8 µM (inactive),> 10 µM (inactive),> 100 µM (inactive),69.8 µM (inactive),> 100 µM (inactive),> 100 µM (inactive),30.4 µM (inactive),20.9 µM (inactive),83 µM (inactive),87.5 µM (inactive),> 100 µM (inactive),39.7 µM (inactive),68.1 µM (inactive),28.6 µM (inactive),46.9 µM (inactive),64.9 µM (inactive)
O=C1NC2CCCCC2N=C1CC(=O)c1ccc(Br)cc1 (stereo unspecified),4.19 µM (inactive),39 µM (inactive),4.07 µM (inactive),> 100 µM (inactive),4.22 µM (inactive),28.2 µM (inactive),16.2 µM (inactive),> 100 µM (inactive),> 100 µM (inactive),> 100 µM (inactive),3.86 µM (inactive),> 100 µM (inactive),4.57 µM (inactive),70.6 µM (inactive),28.6 µM (inactive),26.8 µM (inactive),6 µM (inactive),3.94 µM (inactive),10.2 µM (inactive),19.2 µM (inactive)
CC(C)C1=CC23CCC4C(C)(C(=O)O)CCCC4(C)C2CC1C1C(=O)N(c2ccc(C(=O)O)cc2)C(=O)C13 (stereo unspecified),> 100 µM (inactive),> 100 µM (inactive),> 100 µM (inactive),> 100 µM (inactive),> 100 µM (inactive),> 100 µM (inactive),> 100 µM (inactive),> 100 µM (inactive),> 100 µM (inactive),> 100 µM (inactive),> 100 µM (inactive),> 100 µM (inactive),> 100 µM (inactive),> 100 µM (inactive),> 100 µM (inactive),> 100 µM (inactive),> 100 µM (inactive),> 100 µM (inactive),> 100 µM (inactive),> 100 µM (inactive)
